Experimental data published in publication PMC12564302, “Discovery of N-Hydroxypyridinedione-Based Inhibitors of HBV RNase H: Design, Synthesis, and Extended SAR Studies” (International Journal of Molecular Sciences, 2025).
Read-outs that look alike come from different tables or passages of the source.

Tests used:
[1] = test system: HBV replication in HepDES19 cells; conditions: cited from earlier work
HepDES19 cells = conditions: cited from earlier work
[2] = test system: HBV replication in HepDES19 cells; experiment: qPCR HBV replication inhibition assay; format: cell-based, HBV genotype D; conditions: 72 h, (+) polarity DNA strand, pH 7.4, read-out: EC50
Protocol: (§1) HepDES19 cells are a HepG2 cell-line derivative that has been stably transfected with an HBV genotype D genome containing a tetracycline repressible promoter. HepDES19 cells were maintained on collagen-coated plates in Dulbecco’s modified Eagle’s medium (DMEM/F12) (Cytiva Life Sciences, Marlborough, MA, USA) supplemented with 10% fetal bovine serum (FBS), streptomycin (100 µg/mL), and penicillin (100 IU/mL), and incubated at 37 °C with 5% CO2 and saturating humidity. Cells were cultured with 1 µg/mL tetracycline to inhibit the expression of the stably integrated HBV genome, and HBV replication was activated upon removal of tetracycline from the culture medium.
HBV replication inhibition in HepDES19 cells was assessed using a strand-preferential quantitative PCR assay as previously described. HepDES19 cells were seeded in 96 well plates at 4 × 10^4 cells/well for 48 h followed by the addition of serial diluted compound with a final concentration of 1% DMSO for 72 h, after which cells were lysed, and qPCR was performed as described in Li et al.. Effective concentration 50% (EC50) values were calculated from data for the (+) polarity DNA strand data using GraphPad Prism version 10’s four-parameter log (inhibitor) versus response algorithm, with the bottom value set to zero. Three or more replicate assays were performed on different days.

MTS cytotoxicity assay = format: cell-based; conditions: human, HepDES19 cells, pH 7.4
Protocol: as §1
Cell viability was assessed using the CellTiter 96^TM Aqueous Non-Radioactive Cell Proliferation assay (MTS) (Promega, Madison, WI, USA) as described previously. HepDES19 cells were seeded in 96 well plates at 1 × 10^4 cells/well for 48 h. Cells were then incubated with serial diluted compound, with a final concentration of 1% DMSO, for 72 h. Following compound incubation, background absorbance values were subtracted, and the data were converted into percent cell viability. The cytotoxic concentration 50% (CC50) values were calculated using GraphPad Prism’s four-parameter log (inhibitor) versus response algorithm, with the bottom value set to zero. Three or more replicate assays were performed on different days.

Solubility limit assay = format: physicochemical; conditions: DMEM-F12 without phenol red with 10% FBS, pH 7.4, plasma or biological fluid, kinetic from dmso stock
Protocol: Solubility limits of compounds were tested as previously reported in DMEM-F12 without phenol red (Gibco, Grand Island, NY, USA) but with the media supplemented with 10% FBS (pH 7.4) to mimic cell culture experiments. In a 384-well optically clear plate, compounds were serially diluted in pH 7.4 buffer (upper limit 200 µM, DMSO 1%) then read at 620 nm. Solubility limits were determined by plotting compound concentration (µM) against optical density (OD) and identifying an inflexion point. The inflexion point is defined by a substantial increase in OD brought on by increasing turbidity, and the compound concentration at this point is known as the solubility limit. Each compound had at least two replicate assays performed on different days.

[3] = Parallel artificial membrane permeability assay; format: in vitro ADME; conditions: PAMPA, pH 7.4, PAMPA
Protocol: The evaluation of apparent passive permeability (Papp) at pH 7.4 was performed using a donor/acceptor cassette (Innovative Laboratory Products, Phoenix, AZ, USA and Sigma Aldrich, Burlington, MA, USA), which simulates the apical and basolateral sides of the small intestine epithelium, as previously described. An artificial membrane made of 1% w/v lecithin/dodecane was applied to the poly (vinylidene fluoride) (PVDF) membrane filter and allowed to dry. Following drying, compounds (200 µM) were diluted in buffer at pH 7.4 and added to the donor side of the cassette. The same pH buffer was added on the acceptor side of the cassette, after which it was assembled and incubated at room temperature with shaking at 250 rpm for 2 h, before reading the absorbance of 100 µL from the acceptor well on a plate reader between 230 and 700 nm. The Papp (cm/s) values for compounds were determined by normalizing to the compound absorbance at equilibrium using the peak absorbance point for each compound, buffer volume, incubation time, and membrane porosity. Two or more replicate assays were conducted on different days.

[4] = test system: HBV RNase H carrying the P790L mutation; experiment: Recombinant RNase H biochemical assay (FAM/IowaBlack RNA:DNA heteroduplex); conditions: qualitative assay
Protocol: HBV RNase H carrying the P790L mutation that is needed to stabilize the recombinant enzyme was purified from E. coli, and RNase H assays in which an RNA:DNA heteroduplex was incubated with the recombinant enzyme were performed. The RNA strand is FAM-labelled, and the DNA strand carries an IowaBlack quencher. Cleavage of the RNA strand releases the FAM moiety from quenching, causing an increase in fluorescence. Performance limitations with the enzyme limit this assay to just qualitative interpretation.

[5] = pH 7.4, previously published compounds
[6] = Hepatitis B virus, HepDES19, 72 h, pH 7.4, HepDES19 cells
[7] = pH 7.4, DMEM-F12 with 10% FBS, 1% DMSO, upper limit 200 µM, read-out: Solubility Limit
[8] = pH 7.4, read-out: Solubility Limit Interpretation
[9] = pH 7.4, 200 µM, 2 h, read-out: Papp
[10] = pH 7.4, read-out: Papp Interpretation
[11] = Figure 1, earlier HBV RNase H inhibitors
[12] = pH 7.4, previously published compound, Table 1
[13] = pH 7.4, previously published compound

Row | SMILES | EC50 [1, 5] [µM] | CC50 (HepDES19 cells; [5]) [µM] | EC50 [2, 6] [µM] | CC50 at 72 h (MTS cytotoxicity assay) [µM] | solubility (Solubility limit assay; [7]) [µM] | solubility (Solubility limit assay; [8]) [µM] | Papp at 2 h, 200 µM [3, 9] [×10⁻⁶ cm/s] | Papp at 2 h, 200 µM [3, 10] [×10⁻⁶ cm/s] | also measured
1 | C/C(=N\OCc1cccc(Br)c1)c1c(C)cc(=O)n(O)c1O [Compound 47] | 0.52 ± 0.33 | 78.5 ± 32.4 | – | – | – | – | – | – | –
2 | C/C(=N\OCc1ccccc1Cl)c1c(C)cc(=O)n(O)c1O [Compound 49] | 0.24 ± 0.09 | – | – | – | – | – | – | – | –
3 | CC(=Nc1ccc(F)c(F)c1)c1c(C)cc(=O)n(O)c1O [Compound 22, 5-(1-((3,4-difluorophenyl)imino)ethyl)-1,6-dihydroxy-4-methylpyridin-2(1H)-one] | – | – | 0.9 | 100 | > 200 | > 100 | 2.99 | > 1 | EC50 ([2]; HepDES19 cells): 0.89 ± 0.4 µM; suppression of RNase H activity ([4]; at 100 µM): ~ 50%; suppression of RNase H activity (in words) [4]: dose-dependent suppression of RNase H activity
4 | COc1ccc(CON=C(C)c2c(C)cc(=O)n(O)c2O)cc1 [A24] | – | – | – | – | – | – | – | – | EC50 [1, 11]: 0.29 µM; CC50 (HepDES19 cells; [11]): 102 µM
5 | C/C(=N\OCc1ccccc1Br)c1c(C)cc(=O)n(O)c1O [Compound 46] | 2 ± 1.6 | 80.8 ± 27.5 | – | – | – | – | – | – | –
6 | C/C(=N\c1ccccc1N)c1c(C)cc(=O)n(O)c1O [Compound 54] | – | – | – | – | – | – | – | – | EC50 [1, 12]: 0.69 ± 0.2 µM; CC50 (HepDES19 cells; [12]): 15 ± 7 µM
7 | C/C(=N\OCc1ccc(Cl)cc1)c1c(C)cc(=O)n(O)c1O [Compound 51] | 0.36 ± 0.24 | 46.6 ± 13.6 | – | – | – | – | – | – | –
8 | CC(=Nc1ccccc1F)c1c(C)cc(=O)n(O)c1O [Compound 21, 5-(1-((2-fluorophenyl)imino)ethyl)-1,6-dihydroxy-4-methylpyridin-2(1H)-one] | – | – | 2.2 ± 0.5 | 86.3 ± 10.2 | > 200 | > 100 | 5.72 | > 1 | –
9 | CC(=NCc1cccc(F)c1)c1c(C)cc(=O)n(O)c1O [Compound 39, 5-(1-((3-fluorobenzyl)imino)ethyl)-1,6-dihydroxy-4-methylpyridin-2(1H)-one] | – | – | 27.6 ± 3.7 | 19.3 ± 10.5 | > 200 | > 100 | 1.89 | > 1 | –
10 | CC(=Nc1ccccc1Br)c1c(C)cc(=O)n(O)c1O [Compound 25, 5-(1-((2-bromophenyl)imino)ethyl)-1,6-dihydroxy-4-methylpyridin-2(1H)-one] | – | – | 4.53 ± 2.5 | 45.8 ± 4.6 | > 200 | > 100 | 3.12 | > 1 | –
11 | C/C(=N\OCc1ccc(Br)cc1)c1c(C)cc(=O)n(O)c1O [Compound 48] | 1.13 ± 0.19 | 76.7 ± 30.3 | – | – | – | – | – | – | –
12 | C/C(=N\OCc1cccc(Cl)c1)c1c(C)cc(=O)n(O)c1O [Compound 50] | 1.35 ± 1.03 | 56.9 ± 31.1 | – | – | – | – | – | – | –
13 | C/C(=N\OCc1ccccc1F)c1c(C)cc(=O)n(O)c1O [Compound 52] | – | – | – | – | – | – | – | – | EC50 [1, 13]: 0.32 ± 0.2 µM; CC50 (HepDES19 cells; [13]): 90 ± 6 µM
14 | C/C(=N\OCc1cccc(F)c1)c1c(C)cc(=O)n(O)c1O [Compound 53] | 0.06 ± 0.01 | 73.9 ± 28.6 | – | – | – | – | – | – | –
15 | CC(=NCc1cc(F)cc(F)c1)c1c(C)cc(=O)n(O)c1O [Compound 42, 5-(1-((3,5-difluorobenzyl)imino)ethyl)-1,6-dihydroxy-4-methylpyridin-2(1H)-one] | – | – | 73.7 ± 26.3 | 82.9 ± 24.6 | > 200 | > 100 | 1.53 | > 1 | –
16 | CC(=NCc1ccc(Cl)cc1)c1c(C)cc(=O)n(O)c1O [Compound 38, 5-(1-((4-chlorobenzyl)imino)ethyl)-1,6-dihydroxy-4-methylpyridin-2(1H)-one] | – | – | 18.9 ± 8.4 | 22.9 ± 7 | > 200 | > 100 | 3.07 | > 1 | –
